Experimental findings from paper PMC4833300, “Identification of Trypanocidal Activity for Known Clinical Compounds Using a New Trypanosoma cruzi Hit-Discovery Screening Cascade” (PLoS Neglected Tropical Diseases, 2016) are described below.

Assay [1] relates to intracellular T. cruzi amastigotes. The experiment in a line: Primary high-content intracellular T. cruzi amastigote assay. As to conditions: for EC50: Trypanosoma cruzi, read-out: pEC50 (cruzi) (converted). Format: cell-based, Trypanosoma cruzi (Silvio X10/7 A1) in Vero cells. The protocol:
(§1) The compounds tested were obtained from the NIH (Clinical Collection) and from SelleckChem (FDA-approved drug library). Compounds were dispensed into black 384-well assay plates (Corning) by acoustic dispensing (LabCyte ECHO). […] Potencies are reported as pEC50 (-LOG(EC50[M])).
(§2) For the primary intracellular assay the infection conditions were chosen so that no trypomastigote egress occurs during the compound incubation time. First, Vero cells were infected overnight with tissue culture derived T. cruzi trypomastigotes in T225 tissue culture flasks (MOI 5). Next, any remaining free trypomastigotes were washed away with serum free MEM and the infected Vero cells were harvested by trypsinisation. The infected Vero cells were then plated into 384-well plates containing the compounds to be tested, at 4000 cells per well in MEM media with 1% FCS. […] The plates were imaged on a Perkin Elmer Operetta high-content imaging system using a 20x objective. Images were analysed using the Columbus system (Perkin Elmer). The algorithm for the primary assay first identified the Vero nuclei followed by demarcation of the cytoplasm and identification of intracellular amastigotes. This algorithm reported mean number of parasites per Vero cell and total number of Vero cells. Data analysis was as described in [22]. […] Hits from the primary screen were selected based on the following criteria: T. cruzi activity (percent inhibition) > (median T. cruzi percent inhibition + 3 x robust Standard Deviation) and Vero activity (percent inhibition) < (median percent Vero inhibition + 3 x robust Standard Deviation).

The subject of assay [2] is Vero cells. Nature of the assay: Host cell toxicity read-out of the primary assay (Vero cell count). Format: cell-based. As to conditions: for EC50: Chlorocebus sabaeus, Vero, read-out: pEC50 (Vero) (converted). How it is done: as §1, §2
[3] abbreviates: hits of the bio-actives screen, 10-point dose-response, top concentration 50μM, 72h.

Molecules are shown by their SMILES. Like-named read-outs stand apart in the source and are kept apart here.

As for `C#C[C@]1(O)CC[C@H]2[C@@H]3CCC4=Cc5oncc5C[C@]4(C)[C@H]3CC[C@@]21C` [Danazol], the EC50 in assay [1] (setting [3]) was 3.98 µM; in assay [2] (setting [3]), 15.8 µM.

Regarding `CCOC(=O)C1(c2ccccc2)CCN(CCC(C#N)(c2ccccc2)c2ccccc2)CC1` [Diphenoxylate], the figures for the EC50 in assay [1] (72 h) and in assay [2] (72 h) were 2.51 µM and 15.8 µM, respectively.

In the case of `Nc1ncnc2c1ncn2[C@@H]1O[C@H](CO)C[C@H]1O` [3'-deoxydenosine], the “pEC50 (cruzi)” value in assay [1] (setting [3]) is reported as 5.6. Moreover, the “pEC50 (Vero)” value in assay [2] (setting [3]) was 4.3.

For `C[C@]12Cc3c[nH]nc3C[C@@H]1CC[C@@H]1[C@@H]2CC[C@@]2(C)[C@H]1CC[C@]2(C)O` [Stanozolol], the figures for the EC50 in assay [1] (72 h) and in assay [2] (72 h) were 5.01 µM and 15.8 µM, respectively.

As to `C=C1[C@H](CO)[C@@H](O)C[C@@H]1n1cnc2c(=O)[nH]c(N)nc21` [Entecavir], the EC50 in assay [1] (setting [3]) is 3.98 µM; in assay [2] (setting [3]), 15.8 µM.

As for `C=CCc1ccc(O)c(-c2ccc(O)c(CC=C)c2)c1` [Honokiol], the EC50 in assay [1] (setting [3]) is 2 µM; in assay [2] (setting [3]) it was 7.94 µM.

Turning to `COc1ccc(CN2CCN(C(c3ccc(F)cc3)c3ccc(F)cc3)CC2)c(OC)c1OC` [Lomerizine], the EC50 was 3.98 µM in assay [1] (setting [3]) and 15.8 µM in assay [2] (setting [3]).

Turning to `CCCCC(=O)O[C@H]1CC[C@H]2[C@@H]3CCc4cc(O)ccc4[C@H]3CC[C@]12C` [17β-estradiol 17-valerate], in assay [1] (setting [3]), the “pEC50 (cruzi)” value is listed as 5.0. Further, the “pEC50 (Vero)” value in assay [2] (setting [3]) was 4.9.

On to `CN(C)CC/C=C1/c2ccccc2Sc2ccc(Cl)cc21` [Chlorprothixene], for which the EC50 in assay [1] (setting [3]) was 3.16 µM; in assay [2] (setting [3]), 15.8 µM.

Regarding `Cc1cccc(CN2CCN(C(c3ccccc3)c3ccc(Cl)cc3)CC2)c1` (stereo not drawn) [Meclizine], the EC50 in assay [1] (setting [3]) was 5.01 µM; in assay [2] (setting [3]), 20 µM.

In the case of `COc1cc2nc(N3CCN(C(=O)C4COc5ccccc5O4)CC3)nc(N)c2cc1OC` (stereo not drawn) [Doxazosin], the figures for the EC50 in assay [1] (setting [3]) and in assay [2] (setting [3]) were 5.01 µM and 15.8 µM, respectively.

`COC(=O)C1=C(C)NC(C)=C(C(=O)OC2CCCN(Cc3ccccc3)C2)C1c1cccc([N+](=O)[O-])c1` (stereo not drawn) [Benidipine]: the results for the EC50 in assay [1] (setting [3]) and in assay [2] (setting [3]) were 2 µM and 10 µM, respectively.

In the case of `CCOC(=O)C1=C(C)NC(C)=C(C(=O)OC)C1c1cccc([N+](=O)[O-])c1` (stereo not drawn) [Nitrendipine], the values for the EC50 in assay [1] (setting [3]) and in assay [2] (setting [3]) were 3.98 µM and 15.8 µM, respectively.

As for `COCCOC(=O)C1=C(C)NC(C)=C(C(=O)OC(C)C)C1c1cccc([N+](=O)[O-])c1` (stereo not drawn) [Nimodipine], the EC50 is 2 µM in assay [1] (setting [3]) and 15.8 µM in assay [2] (setting [3]).

Consider `COC(=O)[C@H]1[C@H]2C[C@@H]3c4[nH]c5cc(OC)ccc5c4CCN3C[C@H]2C[C@@H](OC(=O)c2cc(OC)c(OC)c(OC)c2)[C@@H]1OC` [Reserpine], for which the EC50 in assay [1] (setting [3]) was 3.98 µM; in assay [2] (setting [3]) it was 50.1 µM.

On to `CN(C)[C@@H](CCOc1cccc2ccccc12)c1ccccc1` [Dapoxetine], for which the EC50 was 5.01 µM in assay [1] (setting [3]) and 15.8 µM in assay [2] (setting [3]).

With `CNCC[C@H](Oc1cccc2ccccc12)c1cccs1` [Duloxetine], the results for the EC50 in assay [1] (72 h) and in assay [2] (72 h) were 6.31 µM and 15.8 µM, respectively.

As for `COCCOC(=O)C1=C(C)NC(C)=C(C(=O)OC/C=C/c2ccccc2)C1c1cccc([N+](=O)[O-])c1` (stereo not drawn) [Cilnidipine], the figures for the EC50 in assay [1] (setting [3]) and in assay [2] (setting [3]) were 1.26 µM and 15.8 µM, respectively.

On to `CCOC(=O)C1=C(C)NC(C)=C(C(=O)OC)C1c1cccc(Cl)c1Cl` (stereo not drawn) [Felodipine], for which the values for the EC50 in assay [1] (setting [3]) and in assay [2] (setting [3]) were 5.01 µM and 15.8 µM, respectively.

In the case of `CCOC(=O)c1cncn1[C@H](C)c1ccccc1` [Etomidate], the values for the EC50 in assay [1] (72 h) and in assay [2] (72 h) were 5.01 µM and 50.1 µM, respectively.

Take `CCC(C)(C)c1ccc(CC(C)CN2C[C@@H](C)O[C@@H](C)C2)cc1` (stereo partly drawn) [Amorolfine]: the EC50 in assay [1] (setting [3]) is 10 µM; in assay [2] (setting [3]), 15.8 µM.
